Laboratory results reported in patent US20040214834A1, “Pyrazolo-pyridines for the treatment of herpes infections” (priority 2001, published 2004).

Test system: HSV-1
Experiment: HSV-1 replication in infected Vero 76 cells, viral DNA detected by hybridization capture
Assay type: cell-based, herpes simplex virus 1
Conditions: Human alphaherpesvirus 1; HSV-1, Vero 76 cells, MOI=0.001, 40-48 hours incubation
Procedure: Vero 76 cells were maintained in MEM with Earle's salts, L-glutamine, 8% FBS (Hyclone, A-1111-L) and 100 units/mL Penicillin-100 μg/mL Streptomycin. For assay conditions, FBS was reduced to 2%. Cells are seeded into 96-well tissue culture plates at a density of 5×10^4 cells/well after being incubated for 45 min at 37° C. in the presence of HSV-1 or HSV-2 (MOI=0.001). Test compounds are added to the wells and the plates are incubated at 37° C. for 40-48 hours. Cell lysates are prepared as follows: media was removed and replaced with 150 μL/well 0.2 N NaOH with 1% Igepal CA 630 or NP-40. Plates were incubated up to 14 days at room temperature in a humidified chamber to prevent evaporation.
For the detection probe, a gel-purified, digoxigenin-labeled, 710-bp PCR fragment of the HSV UL-15 sequence was utilized. PCR conditions included 0.5 μM primers, 180 μM dTTP, 20 μM dUTP-digoxigenin (Boehringer Mannheim 1558706), 200 μM each of dATP, dCTP, and dGTP, 1× PCR Buffer II (Perkin Elmer), 2.5 mM MgCl2, 0.025 units/μL of AmpliTaq Gold polymerase (Perkin Elmer), and 5 ng of gel-purified HSV DNA per 100 μL Extension conditions were 10 min at 95° C., followed by 30 cycles of 95° C. for 1 min. 55° C. for 30 sec. and 72° C. for 2 min. The amplification was completed with a 10-min incubation at 72° C. […] Single-stranded transcripts were purified with Promega M13 Wizard kits. The final product was mixed 1:1 with a mixture of 6 M GuSCN, 100 mM EDTA and 200 μg/mL herring sperm DNA and stored at 4° C.
The capture DNA plasmid (HSV UL13 region in pUC) was linearized by cutting with Xbal, denatured for 15 min at 95° C. and diluted immediately into Reacti-Bind DNA Coating Solution (Pierce, 17250, diluted 1:1 with TE buffer, pH 8) at 1 ng/μL. 75 μL/well were added to Corning (#3922 or 9690) white 96-well plates and incubated at room temperature for at least 4 hrs before washing twice with 300 μL/well 0.2×SSC/0.05% Tween-20 (SSC/T buffer). The plates were then incubated overnight at room temperature with 150 μL/well 0.2 N NaOH, 1% IGEPAL and 10 μg/mL herring sperm DNA.
Twenty-seven (27) μL of cell lysate was combined with 45 μL of hybridization solution (final concentration: 3M GuSCN, 50 mM EDTA, 100 μg/ml salmon sperm DNA, 5× Denhardt's solution, 0.25×APE, and 5 ng of the digoxigenin-labeled detection probe). APE is 1.5 M NH4-acetate, 0.15 M ammonium phosphate monobasic, and 5 mM EDTA adjusted to pH 6.0. Mineral oil (50 μL) was added to prevent evaporation. The hybridization plates were incubated at 95° C. for 10 minutes to denature the DNA, then incubated at 42° C. overnight. The wells were washed 6× with 300 μL/well SSC/T buffer then incubated with 75 μL/well anti-digoxigenin- HRP-conjugated antibody (Boehringer Mannheim 1207733, 1:5000 in TE) for 30 min at room temperature. The wells were washed 6× with 300 μL/well with PBS/0.05% Tween-20 before 75 μL/well SuperSignal LBA substrate (Pierce) was added. The plates were incubated at room temperature for 30 minutes and chemiluminescence was measured in a Wallac Victor reader.
The following results were obtained for HSV-1.

| IC50 [nM] | SMILES |
| --- | --- |
| 74 | CCSc1cc(NC2CCCC2)cc2c(-c3ccnc(NC4CCCC4)n3)c(-c3ccc(F)cc3)nn12 [Example 2, N-Cyclopentyl-3-[2-(cyclopentylamino)-4-pyrimidinyl]-7-(ethylsulfanyl)-2-(4-fluorophenyl)pyrazolo[1,5-δ]pyridin-5-amine] |
| 322 | Cc1cc(NC2CCCC2)cc2c(-c3ccnc(NC4CCCC4)n3)c(-c3ccc(F)cc3)nn12 [Example 3, N-Cyclopentyl-3-[2-(cyclopentylamino)-4-pyrimidinyl]-2-(4-fluorophenyl)-7-methylpyrazolo[1,5-α]pyridin-5-amine] |
| 160 | CCOc1cc(NC2CCCC2)cc2c(-c3ccnc(NC4CCCC4)n3)c(-c3ccc(F)cc3)nn12 [Example 4, N-Cyclopentyl-3-[2-(cyclopentylamino)-4-pyrimidinyl]-7-ethoxy-2-(4-fluorophenyl)pyrazolo[1,5-α]pyridin-5-amine] |
| 130 | CSc1cc(NC2CCCC2)cc2c(-c3ccnc(NC4CCCC4)n3)c(-c3ccc(F)cc3)nn12 [Example 5, N-Cyclopentyl-3-[2-(cyclopentylamino)-4-pyrimidinyl]-2-(4-fluorophenyl)-7-(methylsulfanyl)pyrazolo[1,5-α]pyridin-5-amine] |
| 82 | COCCOc1cc(NC2CCCC2)cc2c(-c3ccnc(NC4CCCC4)n3)c(-c3ccc(F)cc3)nn12 [Example 6, N-Cyclopentyl-3-[2-(cyclopentylamino)-4-pyrimidinyl]-2-(4-fluorophenyl)-7-(2-methoxyethoxy)pyrazolo[1,5-α]pyridin-5-amine] |
| 135 | COc1ccc(-c2nn3c(SC)cc(NC4CCCC4)cc3c2-c2ccnc(NC3CCCC3)n2)cc1 [Example 9, N-Cyclopentyl-3-[2-(cyclopentylamino)-4-pyrimidinyl]-2-(4-methoxyphenyl)-7-(methylsulfanyl)pyrazolo[1,5-α]pyridin-5-amine] |
| 46 | CCSc1cc(NC2CCCC2)cc2c(-c3ccnc(NC4CCCC4)n3)c(-c3ccc(OC)cc3)nn12 [Example 10, N-Cyclopentyl-3-[2-(cyclopentylamino)-4-pyrimidinyl]-7-(ethylsulfanyl)-2-(4-methoxyphenyl)pyrazolo[1,5-α]pyridin-5-amine] |
| 175 | COc1ccc(-c2nn3c(SC(C)C)cc(NC4CCCC4)cc3c2-c2ccnc(NC3CCCC3)n2)cc1 [Example 11, N-Cyclopentyl-3-[2-(cyclopentylamino)-4-pyrimidinyl]-7-(isopropylsulfanyl)-2-(4-methoxyphenyl)pyrazolo[1,5-α]pyridin-5-amine] |
| 2000 | COc1ccc(-c2nn3c(Sc4ccccc4)cc(NC4CCCC4)cc3c2-c2ccnc(NC3CCCC3)n2)cc1 [Example 12, N-Cyclopentyl-3-[2-(cyclopentylamino)-4-pyrimidinyl]-2-(4-methoxyphenyl)-7-(phenylsulfanyl)pyrazolo[1,5-α]pyridin-5-amine] |
| 260 | CC(C)Sc1cc(NC2CCCC2)cc2c(-c3ccnc(NC4CCCC4)n3)c(-c3ccc(F)cc3)nn12 [Example 13, N-Cyclopentyl-3-[2-(cyclopentylamino)-4-pyrimidinyl]-2-(4-fluorophenyl)-7-(isopropylsulfanyl)pyrazolo[1,5-α]pyridin-5-amine] |
